According to article PMC9399069, “Imaging PARP with [^18F]rucaparib in pancreatic cancer models” (European Journal of Nuclear Medicine and Molecular Imaging, 2022):

What was measured:
Assay type in all cases: cell-based, human
AsPC1 cells [1] = experiment: In vitro uptake and binding selectivity of [18F]rucaparib in AsPC1 cells; settings: unlabelled inhibitor 100 μM for 45 min before [18F]rucaparib (100 nM), further 45 min
Description: (§1) AsPC1 (1 × 10^5 cells/well) and PSN1 cells (7.5 × 10^4 cells/well) were seeded separately in 24-well plates (in 300 μL growth medium) and allowed to adhere for at least 20 h. […] To assess [^18F]rucaparib-binding selectivity, unlabelled PARP inhibitors, IMPDH2 or ALDH2 inhibitor, were added (100 μM, in 270 μL growth medium) for 45 min at 37 °C before addition of [^18F]rucaparib (156 kBq, 6.8 GBq/μmol; [^TotalF]rucaparib final concentration: 100 nM), and the cells were incubated at 37 °C for a further 45 min. Cell culture medium was removed, and cells were washed with PBS. Cells were lysed using RIPA buffer for 15 min at room temperature, and the amount of ^18F in the cell lysates was measured using an automated gamma counter (PerkinElmer), normalising for the number of cells.
(§2) Cells were lysed and the amount of ^18F in the cell lysates was measured as above.

PSN1 cells [2] = experiment: In vitro uptake and binding selectivity of [18F]rucaparib in PSN1 cells; settings: PSN1 cells, unlabelled inhibitor 100 μM for 45 min before [18F]rucaparib (100 nM), further 45 min
Description: as §1, §2

AsPC1 cells [3] = experiment: Protein expression by flow cytometry after PARP inhibitors or DNA-damaging reagents, AsPC1 cells; settings: 10 μM, 3 h, flow cytometry
Description: (§3) Relative expression of PARP1, 2 and 3, ALDH2 and IMPDH2 was determined by flow cytometry. Cells (1 × 10^6 cells/well) were seeded in 96-well plates in growth medium, washed with FACS buffer (PBS, 2% FBS, 1 mM EDTA, 0.1% NaN3) and centrifuged at 500×g for 5 min. Immunostaining was performed using the Foxp3/transcription factor staining buffer set (eBioscience^TM, USA). Intracellular staining was conducted in permeabilisation buffer for 30 min at 4 °C in the dark using the following antibodies: AF488-conjugated anti-PARP-1 (1:100; sc-80070), AF594-conjugated anti-PARP-2 (1:100; sc-393310), anti-PARP-3 (1:100; sc-390771) or anti-PARP-tankyrase-1/2 (1:100; sc-365897) from Santa Cruz Biotechnology Inc. (USA), AF488-conjugated anti-IMPDH2 (1:500; ab-200770) from Abcam plc. (UK) and AF488-conjugated anti-ALDH2 (1:100, ABIN6817568) from Antibodies-online GmbH (UK). Fixable viability dye ef780 (1:4000; eBioscience^TM; 65-0865-14) was used for live and dead cells discrimination. Fixation of immunostained cells was performed for 15 min at room temperature. Flow cytometry was conducted on the CytoFLEX benchtop flow cytometer (Beckman Coulter, USA), with appropriate lasers and filters, positive and negative controls. Data were analysed using FlowJo^TM (Tree Star Inc., BD Biosciences, USA).
(§4) AsPC1 (1 × 10^5 cells/well) and PSN1 cells (7.5 × 10^4 cells/well) were exposed to methyl methanesulfonate (MMS) or temozolomide (TMZ) (100 μM, in a total of 270 μL growth medium) for 3 h at 37 °C. Additionally, [^18F]rucaparib (500 kBq, 3.6 GBq/μmol; [^TotalF]rucaparib final concentration: 301 nM) or [^18F]olaparib (400 kBq, 8.5 GBq/μmol; [^TotalF]olaparib final concentration: 300 nM) was added, and the cells were incubated at 37 °C for 30 min. Cell culture medium was removed, and cells were washed with PBS. For cell retention, fresh medium (300 μL) was added to the cells. Cells were then further incubated at 37°C for 3 h. Cell culture medium was removed, and the amount of ^18F in the cell lysates was measured as above. Protein expression of the cells after DNA-damaging treatments (or PARP inhibitors 10 μM) was performed using flow cytometry as above.

PSN1 cells [4] = experiment: Protein expression by flow cytometry after PARP inhibitors or DNA-damaging reagents, PSN1 cells; settings: 10 μM, 3 h, flow cytometry
Description: as §3, §4

Row | SMILES | Blocking of [18F]rucaparib uptake (AsPC1 cells [1]) | Blocking of [18F]rucaparib uptake (PSN1 cells [2]) | PARP1 expression (MFI) after exposure of PARP inhibitors (AsPC1 cells [3]) | PARP1 expression (MFI) after exposure of PARP inhibitors (PSN1 cells [4])
1 | O=c1c(-c2ccc(O)cc2)coc2cc(O[C@@H]3O[C@H](CO)[C@@H](O)[C@H](O)[C@H]3O)ccc12 [daidzin, reference compound] | significantly reduce | significantly reduce | – | –
2 | COc1c(C)c2c(c(O)c1C/C=C(\C)CCC(=O)OCCN1CCOCC1)C(=O)OC2 [mycophenolate mofetil, reference compound] | significantly reduce | significantly reduce | – | –
3 | Cn1ncnc1[C@H]1c2n[nH]c(=O)c3cc(F)cc(c23)N[C@@H]1c1ccc(F)cc1 [talazoparib] | – | – | upregulated | upregulated
